Experimental data reported in ChEMBL document CHEMBL6092168, “Identification of novel indolinone derivatives as CTSC inhibitors to treat inflammatory bowel disease by modulating inflammatory factors” (Eur J Med Chem, 2024).
Active and inactive are the calls of the source. The rule behind the calls is not given here.

Key:
RAW264.7 [1] = assay: Anti-inflammatory activity in mouse RAW264.7 cells assessed as inhibition of LPS-induced IL-1beta production at 5 uM preincubated for 1 hr followed by LPS addition and measured after 24 hrs by ELISA relative to control; assay type: functional; design: scale not given: the % may be the effect or the level left; conditions: time 25 hrs
[2] = target: T1, Neutrophil elastase (Mus musculus) (UniProt Q3UP87); assay: In vivo inhibition of neutrophil elastase in C57BL/6 mouse assessed as reduction in neutrophil elastase activity in bone marrow administered orally once daily for 6 days by fluorescence based microplate reader; assay type: functional, organism-based; conditions: dose 5-30 mg/kg, route po, time 6.0 day
T1 sequence (whole entry): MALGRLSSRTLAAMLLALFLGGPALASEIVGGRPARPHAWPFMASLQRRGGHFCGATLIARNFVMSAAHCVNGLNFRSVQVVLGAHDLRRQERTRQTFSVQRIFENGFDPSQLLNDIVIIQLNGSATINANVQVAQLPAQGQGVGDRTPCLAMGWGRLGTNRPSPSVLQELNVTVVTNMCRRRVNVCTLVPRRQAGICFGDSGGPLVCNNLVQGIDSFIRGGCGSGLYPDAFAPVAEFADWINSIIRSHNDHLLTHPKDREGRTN

[3] = target: T1, Neutrophil elastase (Mus musculus); assay: Induction of neutrophil elastase degradation in C57BL/6 mouse bone marrow cells assessed as remaining activity at 10 uM incubated for 12 hrs by Western blot analysis relative to control; assay type: cell-based; conditions: Bone marrow cell
Mus musculus [4] = assay: Anti-inflammatory activity in DSS-induced ulcerative colitis male C57BL/6 mouse model assessed as reduction in GM-CSF expression in serum administered via gavage for 10 days by ELISA; assay type: functional, organism-based; conditions: dose 15-60 mg/kg, time 10.0 day
[5] = target: T2, Myeloblastin (Mus musculus) (UniProt Q61096); assay: Induction of proteinase 3 degradation in C57BL/6 mouse bone marrow cells assessed as remaining activity at 10 uM incubated for 12 hrs by Western blot analysis relative to control; assay type: cell-based; conditions: Bone marrow cell
T2 sequence (whole entry): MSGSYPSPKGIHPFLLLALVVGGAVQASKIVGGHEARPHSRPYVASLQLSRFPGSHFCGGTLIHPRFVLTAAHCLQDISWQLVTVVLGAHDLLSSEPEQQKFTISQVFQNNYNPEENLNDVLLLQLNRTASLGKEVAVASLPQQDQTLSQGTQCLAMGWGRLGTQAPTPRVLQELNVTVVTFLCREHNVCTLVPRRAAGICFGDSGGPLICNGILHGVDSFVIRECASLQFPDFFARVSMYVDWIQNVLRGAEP

Mus musculus [6] = assay: Anti-inflammatory activity in DSS-induced ulcerative colitis male C57BL/6 mouse model assessed as reduction in proteinase 3 level in colon at 15 to 30 mg/kg administered via gavage for 10 days; assay type: functional, organism-based; conditions: dose 15-30 mg/kg, time 10.0 day
Dipeptidyl peptidase 1 = Dipeptidyl peptidase 1 (Homo sapiens, UniProt P53634); assay: Induction of thermal stabilization of Cathepsin C in human U-937 cell incubated for 1 hrs at 37 to 65 degreeC by CETSA based Western blot analysis; conditions: dose 10-20 µM
Dipeptidyl peptidase 1, sequence (P53634 25-134 limits assumed): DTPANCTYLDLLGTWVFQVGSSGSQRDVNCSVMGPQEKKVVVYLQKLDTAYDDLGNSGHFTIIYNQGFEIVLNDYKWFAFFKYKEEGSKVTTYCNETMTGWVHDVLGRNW
Dipeptidyl peptidase 1, sequence (P53634 231-394 limits assumed): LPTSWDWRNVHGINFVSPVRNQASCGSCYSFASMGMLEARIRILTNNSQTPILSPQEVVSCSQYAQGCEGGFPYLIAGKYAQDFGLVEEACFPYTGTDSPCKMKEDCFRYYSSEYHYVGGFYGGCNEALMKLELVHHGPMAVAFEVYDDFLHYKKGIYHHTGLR
Dipeptidyl peptidase 1, sequence (P53634 395-463 limits assumed): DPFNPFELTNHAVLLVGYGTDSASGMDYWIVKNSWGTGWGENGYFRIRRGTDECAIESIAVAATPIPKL

[7] = target: T2, Myeloblastin (Mus musculus); assay: In vivo inhibition of proteinase 3 in C57BL/6 mouse assessed as reduction in proteinase 3 activity in blood administered orally once daily for 6 days by fluorescence based microplate reader; assay type: functional, organism-based; conditions: dose 5-30 mg/kg, route po, time 6.0 day
RAW264.7 [8] = assay: Anti-inflammatory activity in mouse RAW264.7 cells assessed as inhibition of LPS-induced NO production preincubated for 1 hr followed by LPS addition and measured after 24 hrs by Griess reagent based assay; assay type: functional, cell-based
[9] = Acute toxicity in ICR mouse assessed as kidney pathological change at 1500 mg/kg, po administered daily for 7 days by H and E staining based analysis; assay type: organism-based; conditions: in vivo, 168 h, time 7 day
[10] = Acute toxicity in ICR mouse assessed as body weight loss at 500 mg/kg, po administered twice daily for 7 days; assay type: organism-based; conditions: in vivo, 168 h, time 7 day
RAW264.7 [11] = assay: Anti-inflammatory activity in LPS-stimulated mouse RAW264.7 cells assessed as reduction in IL-6 production incubated for 24 hrs by ELISA; assay type: functional, cell-based; conditions: dose 0.62-5 µM
Mus musculus [12] = assay: Anti-inflammatory activity in DSS-induced ulcerative colitis male C57BL/6 mouse model assessed as reduction in Cathepsin G level in serum at 60 mg/kg administered via gavage for 10 days relative to control; assay type: functional; design: scale not given: the % may be the effect or the level left; conditions: time 10 day
[13] = target: T2, Myeloblastin (Mus musculus); assay: In vivo inhibition of proteinase 3 in C57BL/6 mouse assessed as reduction in proteinase 3 activity in bone marrow administered orally once daily for 6 days by fluorescence based microplate reader; assay type: functional, organism-based; conditions: dose 5-30 mg/kg, route po, time 6.0 day
[14] = target: T3, Dipeptidyl peptidase 1 (Mus musculus) (UniProt P97821); assay: In vivo inhibition of Cathepsin C in C57BL/6 mouse assessed as reduction in cathepsin C activity in blood administered orally once daily for 6 days by fluorescence based microplate reader; assay type: functional, organism-based; conditions: dose 5-30 mg/kg, route po, time 6.0 day
T3 sequence (whole entry): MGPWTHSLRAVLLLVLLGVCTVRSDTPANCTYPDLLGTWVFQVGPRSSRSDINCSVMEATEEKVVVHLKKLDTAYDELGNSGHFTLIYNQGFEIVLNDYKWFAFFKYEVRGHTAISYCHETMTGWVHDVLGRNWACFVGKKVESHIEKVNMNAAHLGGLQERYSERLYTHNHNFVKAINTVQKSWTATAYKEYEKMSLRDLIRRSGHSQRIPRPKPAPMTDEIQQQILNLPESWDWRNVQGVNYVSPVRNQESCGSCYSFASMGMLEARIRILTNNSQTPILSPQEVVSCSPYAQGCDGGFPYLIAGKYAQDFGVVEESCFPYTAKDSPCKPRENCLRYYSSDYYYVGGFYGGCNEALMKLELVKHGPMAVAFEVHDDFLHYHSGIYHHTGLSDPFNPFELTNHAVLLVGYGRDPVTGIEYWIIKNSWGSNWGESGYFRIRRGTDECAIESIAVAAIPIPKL

Mus musculus [15] = assay: Anti-inflammatory activity in DSS-induced ulcerative colitis male C57BL/6 mouse model assessed as reduction in proteinase 3 level in colon at 60 mg/kg administered via gavage for 10 days relative to control; assay type: functional; design: scale not given: the % may be the effect or the level left; conditions: time 10 day
[16] = target: Voltage-gated inwardly rectifying potassium channel KCNH2 (Homo sapiens, UniProt Q12809); assay: Inhibition of hERG; assay type: toxicity
Voltage-gated inwardly rectifying potassium channel KCNH2, sequence (Q12809 whole entry): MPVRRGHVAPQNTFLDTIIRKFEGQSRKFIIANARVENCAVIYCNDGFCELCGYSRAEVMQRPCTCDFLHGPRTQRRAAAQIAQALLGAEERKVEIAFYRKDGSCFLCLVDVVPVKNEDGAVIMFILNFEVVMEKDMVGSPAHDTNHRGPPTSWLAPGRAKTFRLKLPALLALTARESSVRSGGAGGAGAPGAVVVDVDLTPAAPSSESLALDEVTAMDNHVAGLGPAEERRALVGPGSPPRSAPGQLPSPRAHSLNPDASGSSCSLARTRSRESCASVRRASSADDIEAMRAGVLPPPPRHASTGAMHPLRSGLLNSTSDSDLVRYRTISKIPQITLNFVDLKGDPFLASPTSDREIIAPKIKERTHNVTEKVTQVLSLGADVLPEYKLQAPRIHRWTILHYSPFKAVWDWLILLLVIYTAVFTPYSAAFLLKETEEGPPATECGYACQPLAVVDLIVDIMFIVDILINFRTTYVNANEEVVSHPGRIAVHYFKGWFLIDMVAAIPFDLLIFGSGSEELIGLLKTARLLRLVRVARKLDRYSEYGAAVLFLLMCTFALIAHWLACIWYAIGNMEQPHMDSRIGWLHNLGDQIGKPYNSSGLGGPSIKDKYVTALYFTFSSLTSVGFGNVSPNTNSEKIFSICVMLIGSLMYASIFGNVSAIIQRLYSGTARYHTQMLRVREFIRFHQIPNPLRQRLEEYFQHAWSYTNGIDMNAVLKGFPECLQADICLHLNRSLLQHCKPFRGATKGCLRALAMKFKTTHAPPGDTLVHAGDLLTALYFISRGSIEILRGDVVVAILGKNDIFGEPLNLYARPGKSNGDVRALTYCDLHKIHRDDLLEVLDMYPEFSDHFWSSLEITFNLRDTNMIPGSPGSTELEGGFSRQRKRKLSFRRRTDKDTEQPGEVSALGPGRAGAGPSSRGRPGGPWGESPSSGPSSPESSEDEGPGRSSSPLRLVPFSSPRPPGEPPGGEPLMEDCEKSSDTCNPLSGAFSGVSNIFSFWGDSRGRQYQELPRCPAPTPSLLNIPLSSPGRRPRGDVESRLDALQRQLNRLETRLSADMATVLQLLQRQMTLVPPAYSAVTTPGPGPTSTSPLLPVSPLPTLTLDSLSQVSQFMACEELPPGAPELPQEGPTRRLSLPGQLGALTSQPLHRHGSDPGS

[17] = AUC (0 to infinity) in male Sprague-Dawley rat at 2 mg/kg, iv measured at 5 to 1440 mins by LC-MS/MS analysis; assay type: ADME, organism-based; conditions: in vivo, time 5-1440 min
[18] = target: T2, Myeloblastin (Mus musculus); assay: In vivo inhibition of proteinase 3 in C57BL/6 mouse assessed as reduction in proteinase 3 activity in blood at 30 mg/kg, po administered once daily for 6 days by fluorescence based microplate reader relative to control; assay type: functional, organism-based; conditions: time 6.0 day
Mus musculus [19] = assay: Anti-inflammatory activity in DSS-induced ulcerative colitis male C57BL/6 mouse model assessed as reduction in cathepsin G level in colon at 15 to 30 mg/kg administered via gavage for 10 days; assay type: functional, organism-based; conditions: dose 15-30 mg/kg, time 10.0 day

## O=C1Nc2c(cccc2-c2ccc(NC3CCOCC3)cc2)/C1=C/c1ccnc2ccccc12
RAW264.7 [1]
  Activity: 90.5%
[2]
  inhibition: Dose-dependent-effect
[3]
  Activity: 75%
Mus musculus [4]
  Activity: Dose-dependent-effect; Significant Reduction Observed In High Dose Group
[5]
  Activity: 75%
Mus musculus [6]
  Activity: inactive
Dipeptidyl peptidase 1
  Activity: Dose-dependent-effect; Significant Thermal Stability Observed
[7]
  inhibition: Dose-dependent-effect
RAW264.7 [8]
  IC50: 5.5 µM
[9]
  Activity: Non-toxic
[10]
  Activity: Non-toxic
RAW264.7 [11]
  Activity: Dose-dependent-effect
Mus musculus [12]
  Activity: 40%
[13]
  inhibition: Dose-dependent-effect
[14]
  inhibition: Dose-dependent-effect
Mus musculus [15]
  Activity: 47%
[16]
  IC50: > 30 µM
[17]
  AUC: 915.64 ng·h/mL
[18]
  inhibition: 44.8%
Mus musculus [19]
  Activity: inactive
